From US4708872A, “Antitumor antibiotic complex” (Bristol-Meyers Company, priority 1985, dated 1987)
Several values for one entry are separate records, joined by “and”; a condition that tells them apart may be missing. Equal values may be shown once. Read-outs that look alike come from different tables or passages of the source.

Tests used:
[1] = test system: B16 melanoma; details: qd 1-9 ip; dose of preceding T/C line
Protocol: (§1) Lymphocytic leukemia P-388, lymphoid leukemia L-1210, melanotic melanoma B16 and Lewis lung carcinoma were implanted intraperitoneally into male BDF1 mice at an inoculum size of 10^6, 10^5, 5×10^5 and 10^6 cells per mouse, respectively. Graded doses of test compounds were administered to the mice intraperitoneally 24 hours after the tumor inoculation.
(§2) Death or survival of the treated and non-treated mice was recorded daily, and the median survival time (MST) was calculated for each of the test (T) and control (C) groups. […] Second experiments were carried out by intravenous administration of BBM-1675 components against P-388 and L-1210 leukemias, which were inoculated intravenously at 5×10^5 and 10^4 cells per mouse, respectively.

[2] = test system: Lewis lung carcinoma
Protocol: as §1, §2

[3] = test system: L-1210 leukemia; details: days 1,4,7 iv; dose of preceding T/C line
[4] = test system: L-1210 leukemia; test: Intravenously implanted L-1210 leukemia, iv treatment; details: days 1,4,7 iv

CO[C@@H]1[C@H](O)C[C@@H](O[C@@H]2C[C@H](Oc3cc4cc5c(c(O)c4c(O)c3C)C(=O)[C@@H](O[C@H]3C[C@@H](O[C@H]4C[C@@H](O[C@H]6C[C@](C)(O)[C@@H](OC(C)=O)[C@H](C)O6)[C@H](O)[C@@H](C)O4)[C@H](O)[C@@H](C)O3)[C@H]([C@H](OC)C(=O)[C@@H](O)[C@@H](C)O)C5)O[C@H](C)[C@@H]2OC(C)=O)O[C@@H]1C [Chromomycin A3, chromomycin A3]
Survivors on day 5 [1]: 6/6 | Survivors on day 5 ([2]; mouse, in vivo, ip): 5/5 | Survivors on day 5 ([2]; qd 1-11 ip, dose of preceding T/C line): 6/6

COc1cccc2c1C(=O)c1c(O)c3c(c(O)c1C2=O)C[C@@](O)(C(=O)CO)C[C@@H]3O[C@H]1C[C@H](N)[C@H](O)[C@H](C)O1 [Adriamycin, adriamycin]
MST [3]: 9.0 days | MST ([4]; 16 mg/kg/day): tox. | Survivors on day 5 ([4]; 16 mg/kg/day): 2/6 | Survivors on day 45 ([4]; 16 mg/kg/day): 0/6 | MST ([4]; dose of preceding T/C line): 12.0 days and 8.0 days | Survivors on day 5 ([4]; dose of preceding T/C line): 6/6
